Experimental findings from US8017326B2, “Methods of modulating cell death based on the Bit-1/AES regulatory pathway” (Sanford-Burnham Medical Research Institute, priority 2002, dated 2011) are described below.

Assay [1] relates to Bit1-induced apoptosis in 293T cells. As to the kind of experiment: Caspase inhibitors and anti-apoptotic proteins against Bit1. The format is cell-based, human. The note with it: cytosolic Bit1.
Text: (§1) 293T cells were also co-transfected with Bit1 or AES and the caspase inhibitor proteins crmA and XIAP.
Assay [2] has as its system AES-induced apoptosis in 293T cells. As to the kind of experiment: Caspase inhibitors and anti-apoptotic proteins against AES. Type of assay: cell-based, human.
Text: as §1
Assay [3] deals with Bit1-induced apoptosis in HEK 293 cells. As to the kind of experiment: Co-transfection of Bit1 with anti-apoptotic proteins. The format is cell-based, human. The note with it: HEK 293 cells co-transfected with Bit1. Here is the method:
Co-transfections were performed with cells plated on non-coated dishes transfected with 5 μg Bit1 plasmid alone or together with 10 μg dominant negative (DN) R-Ras, or activated H-Ras plasmid (Zou et al., Proc. Natl. Acad. Sci. USA 96: 13813-13818 (1999)). […] Expression of the transfected proteins was confirmed by immunoblotting. Apoptosis was assayed as described above.

In assay [4] the test system is Bit1-AES complex in HeLa cells. Nature of the assay: Co-immunoprecipitation of Bit1-AES complex, cells plated on fibronectin or collagen. Type of assay: cell-based. As to conditions: HeLa cells plated on fibronectin versus collagen, quantification of gel bands, 24 h after transfection. Here is the method: In these experiments, HeLa cells were plated on fibronectin or collagen before transfection with pCMV-Myc-Bit1 (3 μg) and pCMV-flag-AES (3 μg) plasmids. Cell lysates were harvested 24 h after transfection and immunoprecipitated with anti-flag and immunoblotted with anti-myc. The total amount of DNA used was adjusted to 10 μg with empty vector in each transfection. The expression of the transfected AES in each sample was confirmed by immunoblotting 20 μl of the whole extract with anti-flag as is shown in FIG. 6C, lower boxes in B and C.
Thus, a low level of Bit1/AES complex correlated with cell survival and a high level is associated with apoptosis.

Assay [5] has as its system Bit1-induced apoptosis in HEK 293 cells. Nature of the assay: Extracellular matrix proteins and Bit1-induced apoptosis, trypan blue staining. Type of assay: cell-based, human. The note with it: HEK 293 cells plated onto coated dishes, 10 μg Bit1 plasmid, 48 hours. Here is the method: Several extracellular matrix proteins were assayed for the ability to modulate Bit1-mediated apoptosis. Cells were plated onto bacterial culture dishes pre-coated overnight with fibronectin (Chemicon; Temecula; CA), vitronectin (SIGMA; St. Louis, Mo.) or type I collagen (SIGMA), and transfected and assayed for apoptosis as described above.
To analyze integrin involvement in protecting attached cells against the pro-apoptotic effect of Bit1, Bit1 cell lines expressing either α5β1 or αvβ1 as the main fibronectin receptor were compared. The two cell lines attach equally well to fibronectin but, like cytoplasmically truncated α5β1, αvβ1 fails to protect cells against apoptosis induced by serum deprivation (Zhang et al., supra, 1995; and Matter and Ruoslahti, supra, 2001).
Experiments with extracellular matrix proteins were performed as follows. Cells were plated onto uncoated tissue culture plates or onto bacterial culture plates coated with fibronectin, vitronectin or collagen, and allowed to attach in the presence of serum. The attachment was equal on all of these surfaces. The cells were then transfected with 10 μg of Bit1 expression plasmid; where indicated, cells were treated with a control IgG of unrelated specificity or monoclonal anti-human α5 antibody (Chemicon), both at 10 μg/ml. Cell death was measured by trypan blue staining 48 hours after the transfection.

The next assay has as its system CHO cells. Nature of the assay: Deletion analysis, cell death by trypan blue exclusion. The note with it: 10 μg construct, trypan blue exclusion 48 hours after transfection. Type of assay: cell-based, Chinese hamster. Here is the method: The amino-terminal portion of Bit1 (residues 16-40) is hydrophobic and can serve as a transmembrane domain or signal peptide sequence. When the hydrophobicity of this portion was reduced by substitution of glycine 22 and glycine 38 by serine, Bit1 apoptotic activity was reduced.
Deletion analysis was performed as follows. The indicated deletion mutants were cloned into vector pEGFP-C1, and 10 μg of each plasmid construct transfected into CHO cells. Cell death was measured by trypan blue exclusion 48 hours after transfection.
To delineate the pro-apoptotic domain of AES, a series of AES deletion mutants was prepared as amino-terminal fusions with GFP in vector pEGFP-C1. Various AES deletion constructs (10 μg) were transfected into CHO cells, and cell death measured by trypan blue exclusion 48 hours after transfection.

A further assay concerns Bit1 in HeLa cells. As to the kind of experiment: Localization of C-terminally tagged Bit1 in cells induced to undergo apoptosis. As to conditions: 0.5 μM staurosporin. Type of assay: cell-based. An excerpt:
Colocalization of Bit1 with an endoplasmic reticulum or golgi marker was not observed.

Where a SMILES comes first, the peptide text is derived from it. Where no end group is shown, it is not given here. The star is where a group is joined. Cbz = O=C(OCc1ccccc1)*; CH2F = FC*

As to “Bcl-2: anti-apoptotic protein, expression construct pcDNA3-Bcl-2”, the “effect on apoptosis induced by Bit1” value in assay [1] is “no effect”; in assay [3] it was “little or no effect”. Further, the “effect on apoptosis induced by AES” value in assay [2] is listed as “partially effective”. Take fibronectin: the “reduction in Bit1/AES complex on fibronectin” value in assay [4] is listed as “approximately 75%”. Besides, in assay [5], the “protection from Bit1-induced apoptosis” value is given as “largely protected”. “collagen: type I collagen coated on culture dishes (SIGMA)”: the “protection from Bit1-induced apoptosis” value in assay [5] is “could not confer the same protective effect”. In the case of “AES residues 57-88: AES deletion mutant, amino-terminal fusion with GFP (SEQ ID NO:9) (MQRHYVMYYEMSYGLNIEMHKQAEIVKRLNGI; also: amino-terminal fusion with GFP; UniProt Q08117 57-88, looked up, fragment)”, the “pro-apoptotic activity of deletion constructs” value with CHO cells is “efficiently induced apoptosis”. The same measure, in the same setting: the entry for “AES residues 57-105: AES deletion mutant, amino-terminal fusion with GFP (SEQ ID NO:8) (MQRHYVMYYEMSYGLNIEMHKQAEIVKRLNGICAQVLPYLSQEHQQQVL; also: amino-terminal fusion with GFP; UniProt Q08117 57-105, looked up, fragment)” is “efficiently induced apoptosis”; for “AES residues 1-56: AES deletion mutant, amino-terminal fusion with GFP (MMFPQSRHSGSSHLPQQLKFTTSDSCDRIKDEFQLLQAQYHSLKLECDKLASEKSE; cysteine pairing not given here; also: amino-terminal fusion with GFP; UniProt Q08117 1-56, looked up, fragment)” it is “no apoptotic activity”. For `CN[C@@H]1C[C@H]2O[C@@](C)([C@@H]1OC)n1c3ccccc3c3c4c(c5c6ccccc6n2c5c31)C(=O)NC4` [staurosporin], the “localization of C-terminally tagged Bit1” value with Bit1 in HeLa cells is given as “released into the cytoplasm”. In the case of `COC(=O)C[C@H](NC(=O)[C@H](C)NC(=O)[C@@H](NC(=O)OCc1ccccc1)C(C)C)C(=O)CF` [z-VAD-fmk] (Cbz-Val-Ala-Asp(OMe)-CH2F), the “effect on apoptosis induced by Bit1” value in assay [1] is “ineffective”. Moreover, the “effect on apoptosis induced by AES” value in assay [2] is given as “ineffective”.
